Data as given in patent US9677079B2, “Yeast cells expressing amyloid beta and uses therefor” (Whitehead Insititute for Biomedical Research, priority 2010, dated 2017).
Entries after “also recorded” stand apart in the source; their conditions may differ.

What was measured:
[1] = system: strain expressing toxic levels of Aβ (ssAβ 1-42 strain); assay: Clioquinol rescue: growth in liquid culture of ssAβ 1-42 strain and YFP control strain (Bioscreen, OD600); format: cell-based, Saccharomyces cerevisiae; conditions: FIG. 4
Procedure: To further test the effect of clioquinol, a control strain and a strain expressing toxic levels of Aβ were grown in liquid culture with various concentrations of the compound.
To generate ssAβ1-42 screening strains the ssAβ1-42 construct was moved to a pAG Gal p305 expression vector (S. Alberti, A. D. Gitler, S. Lindquist, A suite of Gateway cloning vectors for highthroughput genetic analysis in Saccharomyces cerevisiae. Yeast 24, 913 (2007)). The plasmid was digested using BstX1, gel purified and transformed into W303. The transformation was carried out in duplicate and the level of growth of 16 transformants each was tested on synthetic deficient media lacking leucine with galactose. Two strains from the independent transformations where chosen as screening strains based on their robust yet intermediate toxicity that would allow for the identification of both suppressors and enhancers. […] The control strain for wild type yeast growth is carrying a Gal inducible YFP integrated in the same fashion as the ssAβ1-42 constructs. For spotting assays strains were grown over night at 30° C. in 3 ml SD media lacking the relevant amino acids and containing glucose. Cell concentrations (OD600) were adjusted in a 96-well plate to that of the strain with the lowest concentration. Cells were then 5 fold serially diluted and spotted on SD media containing glucose (Uninduced) and galactose (Induced). Plates were incubated at 30° C. for 2 (glucose) or 3 days (galactose).
Yeast strains were grown overnight to saturation in synthetic medium with glucose as the carbon source after inoculation from a colony. These cultures were used to inoculate raffinose cultures. Raffinose cultures in log phase growth (OD600 0.7-0.9) were diluted to an OD600 of 0.03 in synthetic medium with galactose as the carbon source, and […] of the cell suspension was distributed to each well of a Bioscreen plate. […] of clioquinol (Sigma C8133, ˜95%), dissolved in DMSO at 100 times the final intended concentration, was added to each well. […]

[2] = system: GAL1-induced expression (GAL controlled YFP); assay: GAL1-induced expression measured by flow cytometry of GAL controlled YFP; format: cell-based, Saccharomyces cerevisiae; conditions: flow cytometry of GAL controlled YFP (data not shown)

Oc1c(I)cc(Cl)c2cccnc12 [clioquinol]
toxicity at higher concentrations ([1]; higher concentrations, ssAβ 1-42 strain and YFP control strain): toxic to both strains
growth at the optimal concentration compared with control strain ([1]; optimal concentration, control strain expressing YFP): nearly as robust as that of the control strain; also recorded: restored growth levels to those of a control strain expressing YFP
growth of the Aβ expressing strain (dose dependence of rescue) ([1]; ssAβ 1-42 strain in inducing (galactose) media, various concentrations): improved the growth of the Aβ expressing strain in a dose dependent manner; also recorded: rescued growth levels in a dose dependent manner
effect on GAL1-induced expression [2]: did not diminish GAL1-induced expression
